According to ChEMBL document CHEMBL3867471, “Identification of lead small molecule inhibitors of glycogen synthase kinase-3 beta using a fragment-linking strategy” (Bioorg Med Chem Lett, 2016):

The molecules below were run against Glycogen synthase kinase-3 beta (Homo sapiens, UniProt P49841) (assay: Inhibition of human GSK3beta using YRRAAVPPSPSLSRHSSPHQ(pS)EDEEE as substrate in presence of gamma-33P-ATP).
Sequence of Glycogen synthase kinase-3 beta (P49841 whole entry): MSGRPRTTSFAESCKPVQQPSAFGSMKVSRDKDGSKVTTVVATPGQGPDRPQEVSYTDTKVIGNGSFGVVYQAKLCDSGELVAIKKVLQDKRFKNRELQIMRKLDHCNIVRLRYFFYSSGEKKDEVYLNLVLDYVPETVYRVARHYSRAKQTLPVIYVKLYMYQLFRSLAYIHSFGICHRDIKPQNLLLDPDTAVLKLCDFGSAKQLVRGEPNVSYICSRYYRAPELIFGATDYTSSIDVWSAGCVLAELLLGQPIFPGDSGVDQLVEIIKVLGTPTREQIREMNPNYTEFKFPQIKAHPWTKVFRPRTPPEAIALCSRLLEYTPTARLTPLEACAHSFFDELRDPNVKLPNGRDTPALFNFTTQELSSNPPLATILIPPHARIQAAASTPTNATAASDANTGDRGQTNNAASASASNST
With `O=C(/C=C/c1cnc2[nH]cc(-c3ccccc3)c2c1)N[C@@H](CO)Cc1ccccc1` the IC50 was 752 nM.
In the case of `O=C(CNC(=O)c1ccc2[nH]cc(-c3ccccc3)c2c1)NCCc1c[nH]c2ccccc12`, the IC50 is reported as greater than 50000 nM.
`O=C(CNC(=O)c1cnc2[nH]c(-c3ccccc3)cc2c1)NCCc1c[nH]c2ccccc12` was tested, and the IC50 was greater than 50000 nM.
`O=C(/C=C/c1cnc2[nH]cc(-c3ccccc3)c2c1)NCCc1cccnc1` was tested, and the IC50 was 32 nM.
`C[C@@H](NC(=O)/C=C/c1cnc2[nH]cc(-c3ccccc3)c2c1)[C@@H](O)c1ccccc1` was tested, and the IC50 was 180 nM.
`O=C(/C=C/c1cnc2[nH]cc(-c3ccccc3)c2c1)NCCc1ccccn1` showed an IC50 of 19 nM.
`O=C(CNC(=O)c1cnc2[nH]ccc2c1)NCCc1c[nH]c2ccccc12` gave an IC50 greater than 50000 nM.
`O=C(/C=C/c1cnc2[nH]cc(-c3ccccc3)c2c1)NCCc1c[nH]cn1` was tested, and the IC50 was 49 nM.
With `O=C(CNC(=O)c1cnc2[nH]cc(C(=O)c3ccccc3)c2c1)NCCc1c[nH]c2ccccc12` the IC50 was 15700 nM.
For `O=C(CNC(=O)c1cnc2[nH]cc(-c3ccccc3)c2c1)NCCc1c[nH]cn1`, the IC50 was 2610 nM.
